# Results reported in ChEMBL document CHEMBL1781978, “A highly conjugated dihydroxylated C28 steroid from a myxobacterium” (J Nat Prod, 2011).
# Test system: SW480
# Experiment: Cytotoxicity against human SW480 cells by MTT assay
# Format: functional, cell-based
smiles,measurement,value
CC(C)[C@@H](C)/C=C/[C@@H](C)[C@H]1CCC2=C3C=CC4=CC(=O)CC[C@]4(C)[C@@]3(O)[C@H](O)C[C@@]21C,IC50,10 µM
